Reference: paper PMC11282151, “Development of New CD38 Targeted Peptides for Cancer Imaging” (Molecular imaging and biology, 2024)

How the values were obtained:
[1] = tested on: hCD38; assay: Phage display biopanning, PHASTpep selectivity score; format: binding, human; details: fold change of peptide frequency hCD38 versus average of hCD4, hCD8, GST-His; two rounds of biopanning, NGS
From the text: Using phage display and purified human CD38 protein (hCD38), the first generation high- and low-selectivity CD38-targeted peptides were identified for the development of CD38-targeted imaging agents. Briefly, two rounds of phage display screening using the PHASTpep platform identified selective peptides for human CD38. CD38 (R&D, Catalog 2404-AC-010, Minneapolis, MN, U.S.A.) or negative control proteins, human CD4 (hCD4), human CD8 (hCD8), and GST-6His were adsorbed on Maxisorp plates (Nalgene, Nunc #442,404) according to NEB phage display protocols (NEB, Ipswich, MA). A 10 μL aliquot of PhD7 library (7 amino acid linear library) (2 × 10^11 phage) (NEB, #E8211S) diluted in blocking buffer (DPBS/1% bovine serum albumin (BSA)) was added to each well. After 1 h of incubation at room temperature, wells were washed five times with blocking buffer and the remaining bound phage eluted into 100 μL of glycine buffer (0.2 M glycine, 0.5 M NaCl, pH 2.2) for 9 min before immediately neutralizing with 17 μL of 1 M Tris–HCl (pH 9.2).
For analysis, sequencing of the selected phage clones was performed as described in Brinton et al.. Samples sent to the UVA Biomolecular Research Core Facility were deep sequenced on an Illumina MiSeq Sequencer. FASTQ files were analyzed using PHASTpep. PHASTpep analyzed files were aligned for amino acid sequence homology using the Smith—Waterman algorithm.
To identify peptides selective for CD38, we biopanned a random, 7 amino acid peptide phage library on recombinant hCD38 as well as hCD4, hCD8, and GST-His. After two rounds of biopanning on each protein, phage were harvested, amplified, and processed for next generation sequencing (NGS). FASTQ files were uploaded into PHASTpep, translated into peptides, and tables of frequency produced. All sequences were normalized to the naïve library (preselection) sequence frequencies and finally the fold change for each peptide frequency between hCD38 and the average of the same peptide frequency from the hCD4, hCD8, and GST-His screens was calculated. The Smith-Waterman homology algorithm was employed to identify clusters of similar peptides (Table S1). From the analysis, two clusters emerged with more than 5 peptides in the homology family and also had high selectivity (PHASTpep Score, Table S1).

[2] = molecular target: T1, Recombinant human CD38 protein (Homo sapiens, UniProt P28907); assay: Microscale thermophoresis (MST) binding affinity; set-up: purchased R&D 2404-AC-010; details: for Response Amplitude: Table S2
Description: Microscale thermophoresis (MST) assays determined the binding affinity of synthesized peptides to purified CD38 protein and was performed using the Monolith NT.115 (Nanotemper Technologies, Munich, Germany). […] Recombinant human CD38 protein (R&D, Catalog 2404-AC-010, Minneapolis, MN) was labeled with NT647 (Protein labeling kit red-maleimide, Nanotemper Technologies, Germany) and subsequently diluted to 5 nM in MST-2 buffer (50 mM Tris–HCl, pH 7.4, 150 mM NaCl, 10 mM MgCl2, 2% DMSO, and 0.1% Tween-20). Fluorescence was assessed in MST-2 buffer. Samples were loaded into NT.115 standard capillaries, and analysis was performed at 37 °C, 10% LED power, and 40% MST power. The Kd values were calculated from fragment concentration-dependent changes in normalized fluorescence (Fraction Bound) of different CD38 peptides based on the law of mass action using the MO Affinity Analysis v2.3 software.
Microscale Thermophoresis (MST) measures molecular interactions based on temperature gradient-dependent mobility of fluorescent biomolecules.
Fig. 1 Binding studies evaluating CD38-peptides using purified CD38 protein. Microscale thermophoresis (MST) analysis of binding affinities between purified CD38 protein and various CD38 peptide sequences.

[3] = molecular target: T2, CD38 on MM.1S-CBR-GFP-WT cells (Homo sapiens, UniProt P28907); assay: In vitro blocking study of ^64Cu-NODAGA-PEG4-SL022-GGS cell binding; format: cell-based; details: for blocking of ^64Cu-NODAGA-PEG4-SL022-GGS binding: 75 μM blocker, MM.1S-CBR-GFP-WT cells
T2 construct: endogenous in cells; host or cells: MM.1S-CBR-GFP-WT human myeloma cells
Description: To evaluate the specificity of the CD38 binding peptide, MM.1S-CBR-GFP-WT cells were suspended in binding buffer (Hank’s Balanced Salt Solution with 1 mM Ca^2+ and 1 mM Mg^2+ (HBSS + / +, Gibco, ThermoFisher, Waltham, MA) supplemented with 0.1% BSA) at 4 × 10^5 cells per 250 μL, representing the reaction volume.
In order to determine whether the conjugates were able to identify CD38 protein expressed in its native context, we performed cell binding assays with MM.1S-CBR-GFP-WT cells.

[4] = molecular target: T1, Recombinant human CD38 protein; assay: MST; Monolith NT.115; NT647-labeled recombinant human CD38 at 5 nM in MST-2 buffer (50 mM Tris-HCl pH 7.4, 150 mM NaCl, 10 mM MgCl2, 2% DMSO, 0.1% Tween-20); peptides titrated (0.0305 nM to 1000 nM or 0.0305 uM to 1000 uM); 37 °C, 10% LED power, 40% MST power

Molecule	Score (PHASTpep Score) [1]	other results
DLVHYPE	1.5	–
TPYPIVL	429.7	–
Thr-His-Tyr-Pro-Ile-Val-Ile [THYPIVI]	730.1	–
AC-Phe-Ser-Arg-Asp-Trp-Thr-Ser-Gly-Gly-Ser-Lys-NH2 [AC-SL028-GGS]	–	Response Amplitude [2]: 4.64
QTSHDWL	1.7	–
FSRDWTS	671.1	–
YDWTMHS	299.7	–
VSYHFPV	194.4	–
MPVARDW	2.1	–
QGTDWTM	1.7	–
daratumumab: CD38-targeted FDA approved antibody [reference compound]	–	blocking of ^64Cu-NODAGA-PEG4-SL022-GGS binding ([3]; 300 nM tracer, 4 °C, 60 min): 73%; cell-bound ^64Cu-NODAGA-PEG4-SL022-GGS in presence of blocker ([3]; 300 nM tracer, 75 μM unlabeled blocker (250-fold molar excess), 4 °C, 60 min, mean ± SD): 3000 ± 600 fmol/mg
AC-Thr-His-Tyr-Pro-Ile-Val-Ile-Gly-Gly-Ser Lys-NH2 [AC-SL022-GGS]	–	Response Amplitude [2]: 4.91
VNYHFPV	1.2	binding to purified CD38 [2]: negligible binding
NODAGA-PEG4-Thr-His-Tyr-Pro-Ile-Val-Ile-Gly-Gly-Ser-Lys-NH2 [NODAGA-PEG4-SL022-GGS]	–	blocking of ^64Cu-NODAGA-PEG4-SL022-GGS binding ([3]; 300 nM tracer, 4 °C, 60 min): 58%; decrease in cell-bound ^64Cu-NODAGA-PEG4-SL022-GGS ([3]; 250-fold molar excess of unlabeled blocker): about 2 fold
YKDWSEW	266.4	–
FSRDWTSGGSK (AC (acetyl) on the N-terminus; C-terminal amide) [AC-SL028-GGS (AC-Phe-Ser-Arg-Asp-Trp-Thr-Ser-Gly-Gly-Ser-Lys-NH2)]	–	Kd [4]: 243 nM
H-KGGSFSRDWTS-NH2 [GGS-SL028 (H-Lys-Gly-Gly-Ser-Phe-Ser-Arg-Asp-Trp-Thr-Ser-NH2)]	–	Kd [4]: 82.6 nM
